{"source": "patent US4812447A", "about": "“Method for the treatment of nervous system degeneration” (City of Hope, priority 1986, dated 1989)", "key": {"rats": {"test_system": "rats", "conditions": "orally; cited from earlier work"}, "NF^+ neurons": {"test_system": "NF^+ neurons", "test": "Example 3: fetal mouse brain cell culture, neurofilament (NF) immunofluorescence of neurons", "assay_type": "cell-based, Swiss mouse", "conditions": "for survival of neurons, outgrowth of neuritic processes, establishment of connections between neurons: low concentrations, explants of fetal mouse brain in culture; for optimal concentration for effects on neurons: numbers, processes, connections and staining of NF^+ neurons", "experimental": "(§1) Cultures were prepared from finely chopped, mechanically dissociated brains from 14-day old Swiss mouse embryos. Cells were plated at a density of 3×10^5 cells/cm^2 on poly-D-lysine coated glass cover slips and maintained at 37° C. in an atmosphere of 5% CO2, 80% humidity in Dulbecco-modified ME medium supplemented with 10% fetal calf serum and containing penicillin. The medium was first changed at 5 days of culture, at which time DHEA and DHEAS was added in concentrations ranging from 10^-4 M to 10^-8 M to the experimental cultures, while the control cultures received only normal medium. The supplemented and control media were changed at 7 days and on the 9th day the cultures were fixed and immunostained by the indirect immunofluorescent method of Coons with rabbit antisera to neurofilament protein, specific for neurons, and to glial fibrillary acidic protein, which is specific for glial cells. Neuronal and glial cells identified by the above procedures subsequently will be designated as NF^+ and GFAP^+ cells.\n(§2) Briefly, cultures were fixed by successive incubation at room temperature with 3.7% formaldehyde and 3.7% formaldehyde containing 0.2% Triton X-100, 10 min each, and incubation at 4° C. with acetone 50%, with acetone 100% and acetone 50%--2 min each. Incubation with the above-mentioned sera anti-cell markers appropriately diluted (1/20-1/30) was carried out at room temperature for 30 min."}, "[1]": {"test_system": "human complement system, C4 component", "conditions": "Koo, et al., Klin. Wochnschr, 61, 715 (1983); cited from earlier work"}, "[2]": {"test_system": "astrocytes (GFAP^+ cells)", "test": "Example 3: fetal mouse brain cell culture, GFAP immunofluorescence of astrocytes / glial cells", "assay_type": "cell-based, Swiss mouse", "conditions": "for brilliance of astrocyte staining (GFAP per unit cell surface) / extent of astrocyte fiber extension / numbers of astrocytes: vs untreated cultures, GFAP staining; for development and maturation of glial processes: low concentrations, explants of fetal mouse brain in culture", "experimental": "as §1, §2"}, "mice [3]": {"test_system": "mice", "conditions": "cited from earlier work"}, "[4]": {"conditions": "oral; cited from earlier work"}, "mice [5]": {"test_system": "mice", "conditions": "orally; cited from earlier work"}, "SDAT patients": {"test_system": "SDAT patients", "test": "Example 1: treatment of SDAT patients over 75 years old with DHEAS", "assay_type": "in vivo, human", "conditions": "500 mg three times per day for two months", "experimental": "Four patients over 75 years old, suffering from SDAT and having well-documented, progressive SDAT symptoms, are selected. Two of the patients are given 500 mg of DHEAS three times per day for two months. The other two are given a placebo."}}, "note": "Where a name gives a salt, the structure may show the parent alone."}
{"smiles": "C[C@]12CC[C@H](O)CC1=CC[C@@H]1[C@@H]2CC[C@]2(C)C(=O)CC[C@@H]12", "note": "[DHEA, dehydroepiandrosterone]", "values": [{"measurement": "LD50", "setting": "rats", "result": "greater than 10,000 mg/kg"}, {"measurement": "connections between neurons and between neuronal clusters", "setting": "NF^+ neurons; 10^-5 M-10^-8 M", "result": "Numerous connections appeared to be formed"}, {"measurement": "neuronal clusters", "setting": "NF^+ neurons; 10^-5 M-10^-8 M", "result": "greatly enlarged neuronal clusters"}, {"measurement": "processes of NF^+ neurons", "setting": "NF^+ neurons; 10^-5 M-10^-8 M", "result": "greatly extended, thickened, and intertwined"}, {"measurement": "numbers of NF^+ neurons", "setting": "NF^+ neurons; 10^-5 M-10^-8 M, by comparison with controls, fixed on 9th day", "result": "remarkable increases"}, {"measurement": "brilliance of fluorescence of neurons and their processes (NF protein content)", "setting": "NF^+ neurons; 10^-5 M-10^-8 M, in contrast to dull signal in controls", "result": "in marked contrast to the rather dull fluorescent signal observed in the controls"}, {"measurement": "size of NF^+ neurons", "setting": "NF^+ neurons; experimental cultures vs controls", "result": "larger than those seen in the controls"}, {"measurement": "survival of neurons, outgrowth of neuritic processes, establishment of connections between neurons", "setting": "NF^+ neurons", "result": "remarkable effects in enhancing the survival of neurons"}, {"measurement": "optimal concentration for effects on neurons", "setting": "NF^+ neurons", "result": "10^-7 M"}, {"measurement": "effect on human complement system, in particular C4 component", "setting": "[1]", "result": "known to effect the human complement system"}, {"measurement": "brilliance of astrocyte staining (GFAP per unit cell surface)", "setting": "[2]", "result": "remarkable increase"}, {"measurement": "extent of astrocyte fiber extension", "setting": "[2]", "result": "remarkable increase"}, {"measurement": "numbers of astrocytes", "setting": "[2]", "result": "remarkable increase"}, {"measurement": "development and maturation of glial processes", "setting": "[2]", "result": "enhanced greatly"}, {"measurement": "incidence of breast cancer", "setting": "mice [3]", "result": "reduce the incidence of breast cancer"}, {"measurement": "obesity", "setting": "mice [3]", "result": "reduce obesity"}, {"measurement": "apparent age after prolonged administration", "setting": "mice [3]; prolonged administration", "result": "appear to be younger"}, {"measurement": "absorption in the gut", "setting": "[4]", "result": "readily absorbed in the gut"}, {"measurement": "LD50", "setting": "mice [5]", "result": "greater than 10,000 mg/kg"}]}
{"smiles": "C[C@]12CC[C@H](OS(=O)(=O)O)CC1=CC[C@@H]1[C@@H]2CC[C@]2(C)C(=O)CC[C@@H]12", "note": "[DHEAS, dehydroepiandrosterone sulfate]", "values": [{"measurement": "LD50", "setting": "rats", "result": "greater than 10,000 mg/kg"}, {"measurement": "effects on NF^+ neurons compared with those of DHEA", "setting": "NF^+ neurons; 10^-4 M to 10^-8 M added", "result": "Effects similar to those above"}, {"measurement": "survival of neurons, outgrowth of neuritic processes, establishment of connections between neurons", "setting": "NF^+ neurons", "result": "remarkable effects in enhancing the survival of neurons"}, {"measurement": "optimal concentration for effects on neurons", "setting": "NF^+ neurons", "result": "10^-8 M"}, {"measurement": "cognitive ability", "setting": "SDAT patients; 2 patients vs 2 placebo", "result": "significant improvements"}, {"measurement": "memory", "setting": "SDAT patients; 2 patients vs 2 placebo", "result": "significant improvements"}, {"measurement": "speech", "setting": "SDAT patients; 2 patients vs 2 placebo", "result": "significant improvements"}, {"measurement": "signs of further SDAT-type deterioration", "setting": "SDAT patients; placebo patients show continuing deterioration", "result": "No signs of further SDAT-type deterioration"}, {"measurement": "effect on human complement system, in particular C4 component", "setting": "[1]", "result": "known to effect the human complement system"}, {"measurement": "brilliance of astrocyte staining (GFAP per unit cell surface)", "setting": "[2]", "result": "remarkable increase"}, {"measurement": "extent of astrocyte fiber extension", "setting": "[2]", "result": "remarkable increase"}, {"measurement": "numbers of astrocytes", "setting": "[2]", "result": "remarkable increase"}, {"measurement": "development and maturation of glial processes", "setting": "[2]", "result": "enhanced greatly"}, {"measurement": "incidence of breast cancer", "setting": "mice [3]", "result": "reduce the incidence of breast cancer"}, {"measurement": "obesity", "setting": "mice [3]", "result": "reduce obesity"}, {"measurement": "absorption in the gut", "setting": "[4]", "result": "readily absorbed in the gut"}, {"measurement": "LD50", "setting": "mice [5]", "result": "greater than 10,000 mg/kg"}]}
